Tested on: MDA (lipid peroxidation) in blood
Experiment: MDA rat model assay (blood MDA, aged rats)
Assay type: in vivo, wistar rats
Experimental: A total of forty 3.5 year old wistar rats were divided into four groups, each containing 10 rats. Groups A, B, C and VE were treated with the activated yeast composition, the control yeast composition, saline and Vitamin E, respectively. Eight 8 month old wistar rats were also selected for group D, which were used as a junior control group.
Groups A, B and VE were administered daily 3 ml/kg (body weight) of the activated yeast composition, 3 ml/kg of the control yeast composition and 0.25 mg/kg of Vitamin E, respectively. Groups C and D were both treated with 3 ml/kg of saline daily. After three months of treatment, blood samples were taken from the heart of the rats and placed in a test tube with heparin. The test tube was then incubated at 37° C. for 10 minutes and centrifuged at 2500 rpm for 10 minutes. 4 ml of sulfuric acid and 0.5 ml of phosphotungstic acid were added to the serum and left at room temperature for 5 minutes after mixing. The mixture was then centrifuged at 3000 rpm for 10 minutes. 2 ml of sulfuric acid and 0.3 ml of phosphotungstic acid were added to the precipitate. Finally, the mixture was used to determine the MDA concentration as described previously.

SMILES: Cc1c(C)c2c(c(C)c1O)CC[C@@](C)(CCC[C@H](C)CCC[C@H](C)CCCC(C)C)O2 [VE, Vitamin E]
- MDA (3.5 year old rats, blood from heart after three months of daily treatment, yeast compositions 3 ml/kg, Vitamin E 0.25 mg/kg): 4.36 ± 0.78 µM
- lipid peroxidation compared to control yeast composition or saline (aged rats, three months, in words): reduced lipid peroxidation

Reference: patent US20040001859A1, “Anti-aging dietary supplements” (priority 2002, published 2004)
